Laboratory results as given in PMC7216583 (Parasites & Vectors, 2020).
Where a name gives a salt, the structure may show the parent alone. Read-outs that look alike come from different tables or passages of the source.

Key:
[1] = tested on: Toxoplasma gondii RH-2F tachyzoites; assay: microbe, parasite or virus in culture; settings: 72 h
Mdm2 = tested on: Mdm2; design: method as in library vendor description; settings: ref library vendor description; cited from earlier work
GSK3 = tested on: GSK3; design: method as in vendor brief description; settings: ref vendor brief description; cited from earlier work
[2] = biological target: HIF-1α prolyl hydroxylase-2 (PHD2); design: method as in vendor brief description; settings: ref vendor brief description; cited from earlier work
mGlu5 receptor = biological target: mGlu5 receptor; design: method as in vendor brief description; settings: ref vendor brief description; cited from earlier work
proteasome = tested on: proteasome; design: method as in vendor brief description; settings: ref vendor brief description; cited from earlier work
GluR1 and GluR3 = tested on: GluR1 and GluR3; design: method as in vendor brief description; settings: ref vendor brief description; cited from earlier work
HER2 = tested on: HER2; design: method as in library vendor description; settings: ref library vendor description; cited from earlier work
HER1 = tested on: HER1; design: method as in library vendor description; settings: ref library vendor description; cited from earlier work
P2Y6 receptor = settings: read-out: IC50 P2Y6 receptor; ref vendor brief description; cited from earlier work
Src = tested on: Src; design: method as in vendor brief description; settings: ref vendor brief description; cited from earlier work
VEGFR1 = tested on: VEGFR1; design: method as in vendor brief description; settings: ref vendor brief description; cited from earlier work
Abl = tested on: Abl; design: method as in vendor brief description; settings: ref vendor brief description; read-out: IC50 Abl; cited from earlier work
in vitro = settings: human, Host viability (%) mean
RGS4 = tested on: RGS4; design: method as in vendor brief description; settings: ref vendor brief description; cited from earlier work
Akt3 = tested on: Akt3; design: method as in vendor brief description; settings: ref vendor brief description; cited from earlier work
Akt1 = tested on: Akt1; design: method as in vendor brief description; settings: ref vendor brief description; cited from earlier work
Cathepsin S = tested on: Cathepsin S; design: method as in vendor brief description; settings: ref vendor brief description; cited from earlier work
Cathepsin B = tested on: Cathepsin B; design: method as in vendor brief description; settings: ref vendor brief description; cited from earlier work
Cathepsin L = tested on: Cathepsin L; design: method as in vendor brief description; settings: ref vendor brief description; cited from earlier work
Cathepsin K = tested on: Cathepsin K; design: method as in vendor brief description; settings: ref vendor brief description; cited from earlier work
Cathepsin L2 = tested on: Cathepsin L2; design: method as in vendor brief description; settings: ref vendor brief description; cited from earlier work
mGlu4 = tested on: mGlu4; design: method as in vendor brief description; settings: ref vendor brief description; cited from earlier work
PARP2 = tested on: PARP2; design: method as in library vendor description; settings: ref library vendor description; cited from earlier work
PKCα = tested on: PKCα; design: method as in library vendor description; settings: ref library vendor description; cited from earlier work
PKCγ = tested on: PKCγ; design: method as in library vendor description; settings: ref library vendor description; cited from earlier work
PKCβ = tested on: PKCβ; design: method as in library vendor description; settings: ref library vendor description; cited from earlier work
PKCε = tested on: PKCε; design: method as in library vendor description; settings: ref library vendor description; cited from earlier work
CA XII = tested on: CA XII; design: method as in vendor brief description; settings: ref vendor brief description; cited from earlier work
CA IX = tested on: CA IX; design: method as in vendor brief description; settings: ref vendor brief description; cited from earlier work
5-HT4a = biological target: 5-HT4a; design: method as in vendor brief description; settings: ref vendor brief description; cited from earlier work
5-HT4b = biological target: 5-HT4b; design: method as in vendor brief description; settings: ref vendor brief description; cited from earlier work
IGF-1R = tested on: IGF-1R; design: method as in vendor brief description; settings: ref vendor brief description; cited from earlier work
FAK = tested on: FAK; design: method as in vendor brief description; settings: ref vendor brief description; cited from earlier work
[3] = biological target: HIV reverse transcriptase; design: method as in vendor brief description; settings: ref vendor brief description; cited from earlier work
V2 receptor = biological target: V2 receptor; design: method as in vendor brief description; settings: ref vendor brief description; cited from earlier work
V1 receptor = biological target: V1 receptor; design: method as in vendor brief description; settings: ref vendor brief description; cited from earlier work
FAAH [4] = tested on: FAAH; design: method as in vendor brief description; settings: rat; ref vendor brief description; cited from earlier work
FAAH [5] = tested on: FAAH; design: method as in vendor brief description; settings: human; ref vendor brief description; cited from earlier work
LPA1 [6] = biological target: LPA1; design: method as in vendor brief description; settings: ref vendor brief description; read-out: Ki LPA1-induced inositol phosphate production; cited from earlier work
LPA3 [7] = biological target: LPA3; design: method as in library vendor description; settings: ref library vendor description; cited from earlier work
LPA2 = biological target: LPA2; design: method as in library vendor description; settings: ref library vendor description; cited from earlier work
LPA1 [8] = biological target: LPA1; design: method as in library vendor description; settings: ref library vendor description; cited from earlier work
LPA3 [9] = biological target: LPA3; design: method as in vendor brief description; settings: ref vendor brief description; read-out: Ki LPA3-induced inositol phosphate production; cited from earlier work
AhR = settings: cited from earlier work
[10] = tested on: human neutrophil elastase; design: method as in vendor brief description; settings: ref vendor brief description; cited from earlier work
matriptase = biological target: matriptase; design: method as in vendor brief description; settings: ref vendor brief description; cited from earlier work
IKK-2 = tested on: IKK-2; design: method as in vendor brief description; settings: ref vendor brief description; cited from earlier work
IKK-1 = tested on: IKK-1; design: method as in vendor brief description; settings: ref vendor brief description; cited from earlier work
IKK complex = tested on: IKK complex; design: method as in vendor brief description; settings: ref vendor brief description; cited from earlier work
NOD1 = tested on: NOD1; design: method as in vendor brief description; settings: ref vendor brief description; cited from earlier work
DNA methyltransferase = biological target: DNA methyltransferase; design: method as in vendor brief description; settings: ref vendor brief description; cited from earlier work
VEGFR-2 = tested on: VEGFR-2; design: method as in vendor brief description; settings: ref vendor brief description; cited from earlier work
Yes = tested on: Yes; design: method as in vendor brief description; settings: ref vendor brief description; cited from earlier work
ChK2 = tested on: ChK2; design: method as in vendor brief description; settings: ref vendor brief description; cited from earlier work
Fms = tested on: Fms; design: method as in vendor brief description; settings: ref vendor brief description; cited from earlier work
[11] = read-out: Parasite inhibition (%) mean, preliminary screen, mean
[12] = read-out: Parasite inhibition (%) mean, preliminary screen of compound library, mean

## COc1ccc(C2=N[C@@H](c3ccc(Cl)cc3)[C@@H](c3ccc(Cl)cc3)N2C(=O)N2CCNC(=O)C2)c(OC(C)C)c1 [Nutlin-3]
[1]; [11]
  inhibition of growth at 5 µM: -1.5%
Mdm2
  IC50: […]

## O=c1sn(-c2cccc3ccccc23)c(=O)n1Cc1ccccc1 [Tideglusib]
GSK3
  IC50: […]
[1]; [12]
  inhibition of growth at 5 µM: 52.8%

## O=C(O)CNC(=O)c1c(O)c2ccccc2n(Cc2ccccc2)c1=O [IOX2]
[2]
  IC50: 21 nM
[1]; [12]
  inhibition of growth at 5 µM: 32.8%

## Cc1nc(C#Cc2ccnc(Cl)c2)c(C)n1-c1ccc(OC(F)(F)F)cc1 [CTEP]
mGlu5 receptor
  IC50: 2.2 nM
[1]; [12]
  inhibition of growth at 5 µM: 2.4%

## CC(C)C[C@H](NC(=O)[C@H](CCc1ccccc1)NC(=O)CN1CCOCC1)C(=O)N[C@@H](Cc1ccccc1)C(=O)N[C@@H](CC(C)C)C(=O)[C@@]1(C)CO1 [Carfilzomib (PR-171)]
proteasome
  IC50: < 5 nM
[1]; [12]
  inhibition of growth at 5 µM: -3.5%

## NCCCCCNCC12CC3CC(CC(C3)C1)C2 [IEM 1754 dihydrobroMide]
GluR1 and GluR3
  IC50: 6000 nM
[1]; [12]
  inhibition of growth at 5 µM: 15.8%

## Cc1c(NC(=O)OC[C@@H]2COCCN2)cn2ncnc(Nc3ccc4c(cnn4Cc4cccc(F)c4)c3)c12 [BMS-599626 (AC480)]
[1]; [11]
  inhibition of growth at 5 µM: 39.6%
HER2
  IC50: 30 nM
HER1
  IC50: 20 nM

## S=C=Nc1cccc(NC(=S)NCCCCNC(=S)Nc2cccc(N=C=S)c2)c1 [MRS 2578]
[1]; [12]
  inhibition of growth at 5 µM: 0.2%
P2Y6 receptor
  IC50: 37 nM

## COc1cc2ncnc(Nc3ccc(Cl)cc3F)c2cc1OC [ZM 306416]
Src
  IC50: […]
VEGFR1
  IC50: […]
[1]; [12]
  inhibition of growth at 5 µM: 70.2%
Abl
  IC50: 1300 nM
In vitro; preliminary screen of compound library, mean
  viability at 72 h: 76.6%

## Cc1ccc(-n2sc(=O)n(Cc3ccc(F)cc3)c2=O)cc1 [CCG 50014]
RGS4
  IC50: 30 nM
[1]; [12]
  inhibition of growth at 5 µM: 1.4%

## CC(C)NC[C@@H](C(=O)N1CCN(c2ncnc3c2[C@H](C)C[C@H]3O)CC1)c1ccc(Cl)cc1 [GDC-0068]
Akt3
  IC50: […]
Akt1
  IC50: […]
[1]; [12]
  inhibition of growth at 5 µM: 35.4%

## Cn1nc(C(C)(C)C)cc1C(=O)N[C@@H](Cc1cccc(Cl)c1)C(=O)NCC#N [Cathepsin Inhibitor 1]
Cathepsin S
  pIC50 Cathepsin S: 6.0
Cathepsin B
  pIC50 Cathepsin B: 5.2
[1]; [12]
  inhibition of growth at 5 µM: 21.5%
Cathepsin L
  pIC50 Cathepsin L: 7.9
Cathepsin K
  pIC50 Cathepsin K: 5.5
Cathepsin L2
  pIC50 Cathepsin L2: 6.7

## O=C(Nc1cccc(Cl)c1)c1ccccn1 [VU 0364770]
mGlu4
  EC50: 1100 nM
[1]; [12]
  inhibition of growth at 5 µM: 1.8%

## O=C(c1cc(Cc2n[nH]c(=O)c3ccccc23)ccc1F)N1CCN(C(=O)C2CC2)CC1 [Olaparib (AZD2281)]
[1]; read-out: Parasite inhibition (%) mean
  inhibition of growth at 5 µM: 28.2%
PARP2
  IC50: 1 nM

## Cn1cc(C2=C(c3cn(C4CCN(Cc5ccccn5)CC4)c4ccccc34)C(=O)NC2=O)c2ccccc21 [Enzastaurin (LY317615)]
PKCα
  IC50: […]
PKCγ
  IC50: […]
[1]; [11]
  inhibition of growth at 5 µM: 11.4%
PKCβ
  IC50: 6 nM
PKCε
  IC50: […]

## NS(=O)(=O)c1ccc(NC(=O)Nc2ccc(F)cc2)cc1 [U-104]
CA XII
  IC50: […]
[1]; [12]
  inhibition of growth at 5 µM: 5%
CA IX
  IC50: […]

## COCCCN1CCC(NC(=O)c2cc(Cl)c(N)c3c2OCC3)CC1 [Prucalopride]
[1]; [12]
  inhibition of growth at 5 µM: -7.6%
5-HT4a
  Ki: 2.5 nM
5-HT4b
  Ki: 8 nM

## CNC(=O)c1ccccc1Nc1nc(Nc2ccc(N3CCOCC3)cc2OC)ncc1Cl [NVP-TAE226]
IGF-1R
  IC50: […]
[1]; [12]
  inhibition of growth at 5 µM: 66.8%
FAK
  IC50: 5.5 nM

## Cc1cc(C)c(Nc2ccnc(Nc3ccc(C#N)cc3)n2)c(C)c1 [Dapivirine]
[1]; [12]
  inhibition of growth at 5 µM: 0.8%
[3]
  IC50: 24 nM

## Cc1ccccc1C(=O)Nc1ccc(C(=O)N2CCCC(N(C)C)c3ccccc32)cc1 (stereo not drawn) [Mozavaptan]
V2 receptor
  IC50: 14 nM
[1]; [12]
  inhibition of growth at 5 µM: 3.1%
V1 receptor
  IC50: 1200 nM

## O=C(Nc1ccccc1)N1CCN(c2nc(-c3ccccc3)ns2)CC1 [JNJ 1661010]
FAAH [4]
  IC50: 10 nM
[1]; [12]
  inhibition of growth at 5 µM: 10.5%
FAAH [5]
  IC50: 12 nM

## Cc1noc(-c2ccc(CSCCC(=O)O)cc2)c1NC(=O)OC(C)c1ccccc1Cl (stereo not drawn) [Ki16425]
LPA1 [6]
  Ki: 340 nM
LPA3 [7]
  Ki: 930 nM
LPA2
  Ki: 6500 nM
[1]; [11]
  inhibition of growth at 5 µM: -25.5%
LPA1 [8]
  Ki: 340 nM
LPA3 [9]
  Ki: 930 nM

## CC(C)n1cnc2c(NCCc3ccc(O)cc3)nc(-c3csc4ccccc34)nc21 [StemRegenin 1]
[1]; [12]
  inhibition of growth at 5 µM: 0.2%
AhR
  IC50: 127 nM

## CN(C)C(=O)COC(=O)Cc1ccc(OC(=O)c2ccc(NC(=N)N)cc2)cc1 [Camostat Mesilate (FOY-305)]
[10]
  IC50: 200 nM
[1]; [12]
  inhibition of growth at 5 µM: 2.5%
matriptase
  IC50: 500 nM

## O=C(c1ccc(Nc2nccc(-c3cc4ccccc4s3)n2)cc1)N1CCC(N2CCCC2)CC1 [IKK-16]
IKK-2
  IC50: 40 nM
[1]; [12]
  inhibition of growth at 5 µM: 99.8%
In vitro
  viability at 72 h: 10.7%
IKK-1
  IC50: 200 nM
IKK complex
  IC50: 70 nM

## Cc1ccc(S(=O)(=O)n2c(N)nc3ccccc32)cc1 [ML130]
[1]; [12]
  inhibition of growth at 5 µM: 3.3%
NOD1
  IC50: 560 nM

## O=C(O)[C@H](Cc1c[nH]c2ccccc12)N1C(=O)c2ccccc2C1=O [RG108]
DNA methyltransferase
  IC50: 115 nM
[1]; [12]
  inhibition of growth at 5 µM: 2.5%

## Cn1cc(-c2[nH]c3cc(NC(=O)[C@H](N)C4CCCCC4)cc4c3c2C=NNC4=O)cn1 [PF 477736]
VEGFR-2
  IC50: 8 nM
[1]; [12]
  inhibition of growth at 5 µM: -0.5%
Yes
  IC50: 14 nM
ChK2
  IC50: 47 nM
Fms
  IC50: 10 nM
